Assay results published in PMC9994683 (PLOS ONE, 2023).

How the values were obtained:
[1] = system: Pseudomonas aeruginosa (ATCC 10145); assay: Well-diffusion assay; format: cell-based; details: extracts 50 μg/mL, 50 μL per well, within 24 h
[2] = system: Listeria monocytogenes (ATCC 35152); assay: Well-diffusion assay; format: cell-based; details: extracts 50 μg/mL, 50 μL per well, within 24 h
[3] = system: Listeria monocytogenes (ATCC 35152); assay: Disc-diffusion assay; format: cell-based; details: ATCC35152, extracts 50 μg/mL, vancomycin 30 μg/disc, ciprofloxacin 5 μg/disc, read-out: zone of inhibition (diameter), Disc, L. mono.
Experimental: (§1) The bactericidalpotential of 50μg/mL of A. indica L. and M. azedarach L. leaves extracts were evaluated using the disc and well-diffusion assays by the formation of inhibition zone. Then, the broth-microdilution approach was used to estimate the values of minimum inhibitory concentration (MIC).
(§2) The antibacterial actions of extracts were examined against Escherichia coli (ATCC 25922), Salmonella enterica (ATCC 14028), Pseudomonas aeruginosa (ATCC 10145), representing Gram-negative (GN) bacteria; Listeria monocytogenes (ATCC 35152), Staphylococcus aureus (ATCC 43300) and Enterococcus faecalis (ATCC 43845), representing Gram-positive (GP) bacteria. Each bacterial culture stock preserved in -80°C was injected into a tube containing 20 ml of Trypticase soya broth (TSB). Then, all inoculated tubes were incubated for 24 h at 37°C. Dilution of the cultures with Mueller–Hinton Broth (MHB) was performed corresponding to ten folds serial dilution upto 10^-8CFU/ml of the bacterial culture.
(§3) 2.6.2.1. Disc-diffusion method. The technique was conducted based upon the Clinical and Laboratory Standards Institute (CLSI) (M02-A11). The prepared bacterial inoculum suspension was briefly swabbed onto MHA medium with a sterile cotton swab. Next, sterile discs made of filter paper (6 mm) (Maidstone, UK) were saturated with 50μg/mLof the tested samples. Both Ciprofloxacin (5μg/disc) and Vancomycin (30μg/disc) were used as controls. The saturated discs were lightly pushed on the top surfaces MHA and incubated with bacteria overnight at 37°C. A produced zone of inhibition (ZOI) was measured and given in millimeters (mm).

[4] = system: Salmonella enterica (ATCC 14028); assay: Disc-diffusion assay; format: cell-based; details: ATCC14028, extracts 50 μg/mL, vancomycin 30 μg/disc, ciprofloxacin 5 μg/disc, read-out: zone of inhibition (diameter), Disc, S. enterica
Experimental: as §1, §2, §3

[5] = system: Staphylococcus aureus (ATCC 43300); assay: Well-diffusion assay; format: cell-based; details: extracts 50 μg/mL, 50 μL per well, within 24 h
[6] = system: Escherichia coli (ATCC 25922); assay: Well-diffusion assay; format: cell-based; details: extracts 50 μg/mL, 50 μL per well, within 24 h
[7] = system: Enterococcus faecalis (ATCC 43845); assay: Disc-diffusion assay; format: cell-based
[8] = system: Staphylococcus aureus (ATCC 43300); assay: Disc-diffusion assay; format: cell-based
[9] = system: Salmonella enterica (ATCC 14028); assay: Well-diffusion assay; format: cell-based; details: extracts 50 μg/mL, 50 μL per well, within 24 h
Experimental: as §1, §2
2.6.2.2. Well-diffusion method. Using sanitized needle tips, a 6 mm-diameter hole was drilled. Afterward when, a sterilized cotton swab was employed to smear the inoculum standard solution of the examined microbes onto the medium. The specimen was then transferred to each well in intervals of 50 μL. Two reference antibiotic drugs (vancomycin and ciprofloxacin) served as positive controls. […]

[10] = system: Enterococcus faecalis (ATCC 43845); assay: Well-diffusion assay; format: cell-based; details: extracts 50 μg/mL, 50 μL per well, within 24 h
[11] = system: Pseudomonas aeruginosa (ATCC 10145); assay: Disc-diffusion assay; format: cell-based
[12] = system: Escherichia coli (ATCC 25922); assay: Disc-diffusion assay; format: cell-based
Vero E6 cells = assay: MTT cytotoxicity assay (CC50) in Vero E6 cells; format: cell-based, African green monkey; details: reference drug control
[13] = system: hCoV-19/Egypt/NRC-3/2020 SARS-CoV-2 virus; assay: Anti-SARS-CoV-2 activity (IC50), crystal violet assay in Vero-E6 cells; format: cell-based; details: SARS-CoV-2 in Vero E6 cells, reference drug control

SMILES	zone of inhibition (diameter), Well, P. aeruginosa [1]	zone of inhibition (diameter), Well, L. mono. [2]	zone of inhibition at 30 µg/disc [3]	zone of inhibition at 30 µg/disc [4]	zone of inhibition (diameter), Well, S. aureus [5]	zone of inhibition (diameter), Well, E. coli [6]	zone of inhibition at 30 µg/disc ([7]; ATCC43845, read-out: zone of inhibition (diameter), Disc, E. faecalis)	zone of inhibition at 30 µg/disc ([8]; ATCC43300, read-out: zone of inhibition (diameter), Disc, S. aureus)	zone of inhibition (diameter), Well, S. enterica [9]	zone of inhibition (diameter), Well, E. faecalis [10]	zone of inhibition at 30 µg/disc ([11]; ATCC10145, read-out: zone of inhibition (diameter), Disc, P. aeruginosa)	zone of inhibition at 30 µg/disc ([12]; ATCC25922, read-out: zone of inhibition (diameter), Disc, E. coli)	CC50 (Vero E6 cells)	IC50 [13]	zone of inhibition at 5 µg/disc [3]	zone of inhibition at 5 µg/disc [4]	zone of inhibition at 5 µg/disc ([7]; ATCC43845, extracts 50 μg/mL, vancomycin 30 μg/disc, ciprofloxacin 5 μg/disc, read-out: zone of inhibition (diameter), Disc, E. faecalis)	zone of inhibition at 5 µg/disc ([8]; ATCC43300, extracts 50 μg/mL, vancomycin 30 μg/disc, ciprofloxacin 5 μg/disc, read-out: zone of inhibition (diameter), Disc, S. aureus)	zone of inhibition at 5 µg/disc ([11]; ATCC10145, extracts 50 μg/mL, vancomycin 30 μg/disc, ciprofloxacin 5 μg/disc, read-out: zone of inhibition (diameter), Disc, P. aeruginosa)	zone of inhibition at 5 µg/disc ([12]; ATCC25922, extracts 50 μg/mL, vancomycin 30 μg/disc, ciprofloxacin 5 μg/disc, read-out: zone of inhibition (diameter), Disc, E. coli)
CN[C@H](CC(C)C)C(=O)N[C@H]1C(=O)N[C@@H](CC(N)=O)C(=O)N[C@H]2C(=O)N[C@H]3C(=O)N[C@H](C(=O)N[C@H](C(=O)O)c4cc(O)cc(O)c4-c4cc3ccc4O)[C@H](O)c3ccc(c(Cl)c3)Oc3cc2cc(c3O[C@@H]2O[C@H](CO)[C@@H](O)[C@H](O)[C@H]2O[C@H]2C[C@](C)(N)[C@H](O)[C@H](C)O2)Oc2ccc(cc2Cl)[C@H]1O [Vanco., vancomycin]	8 ±0.24 mm	11 ±0.11 mm	9 ± 0.43 mm	7 ± 0.21 mm	14 ±0.27 mm	10 ±0.23 mm	11 ± 0.31 mm	12 ± 0.22 mm	9 ±0.24 mm	13 ±0.23 mm	6 ± 0.21 mm	9 ± 0.11 mm	–	–	–	–	–	–	–	–
CCC(CC)COC(=O)[C@H](C)N[P@](=O)(OC[C@H]1O[C@@](C#N)(c2ccc3c(N)ncnn23)[C@H](O)[C@@H]1O)Oc1ccccc1 [remedesivir]	–	–	–	–	–	–	–	–	–	–	–	–	473 µM	6.72 µM	–	–	–	–	–	–
O=C(O)c1cn(C2CC2)c2cc(N3CCNCC3)c(F)cc2c1=O [Cipro., ciprofloxacin]	11 ±0.31 mm	8 ±0.18 mm	–	–	10 ±0.29 mm	16 ±0.19 mm	–	–	12 ±0.31 mm	10 ±0.15 mm	–	–	–	–	6 ± 0.25 mm	11 ± 0.15 mm	9 ± 0.19 mm	8 ± 0.24 mm	9 ± 0.15 mm	14 ± 0.28 mm
